These results are taken from PubChem BioAssay (NCI).

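In this assay, cells in 96-well plates receive the compound at five concentrations for 48 hours. Endpoints are linearly interpolated between the surrounding concentrations. GI50 = concentration required for 50% inhibition of growth. The concentration for full growth arrest is given as TGI.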 Bounds are passed on as bounds.

Common to all, as to experiment: NCI-60 cell line screen, 48 h
In assay [1] the test system is RPMI-8226 leukemia.
The test system of assay [2] is UO-31 renal.
In assay [3] the test system is NCI-H23 lung.
Assay [4] has as its system PC-3 prostate.
The test system of assay [5] is DU-145 prostate.
Assay [6] relates to NCI-H522 lung.
Assay [7] concerns CAKI-1 renal.
The test system of assay [8] is OVCAR-4 ovarian.

On to `N#C/C(=C\c1ccc(Br)cc1)n1nnc2ccccc21`, for which the GI50 is 0.475 µM in assay [1]; 0.449 µM in assay [2]; 1.44 µM in assay [3]; 0.47 µM in assay [4]; 1.23 µM in assay [5]; 0.191 µM in assay [6]. In addition, the GI50 in assay [7] was 0.345 µM; in assay [8], 1.5 µM. For the same compound, the TGI in assay [1] came out at 3.31 µM; in assay [2], 1.63 µM; in assay [3], 4.2 µM; in assay [4], 2.3 µM; in assay [5] it was 3.31 µM; in assay [6], 1.25 µM. In addition, the TGI was found to be 2 µM in assay [7] and 5.25 µM in assay [8].
`O=C(Nc1ccccc1)Nc1cccc(Oc2nnc(Cl)c3ccccc23)c1`: the GI50 in assay [1] is 4.45 µM; in assay [2], 3.98 µM; in assay [3], 3.72 µM; in assay [4], 3.26 µM; in assay [5], 3.01 µM; in assay [6] it was 2.8 µM. For the same compound, the GI50 in assay [7] was 3.34 µM; in assay [8], 1.74 µM. In addition, the TGI in assay [1] was determined as 24.3 µM; in assay [2] it was 19.6 µM; in assay [3], 9.44 µM; in assay [4], 10.6 µM; in assay [5], 10.5 µM; in assay [6], 9.68 µM. In addition, the values for the TGI in assay [7] and in assay [8] were 14.3 µM and 12.2 µM, respectively.
As for `O=[N+]([O-])c1ccc(Cl)cc1N/N=C/c1cccc2cccnc12`, the TGI in assay [1], in assay [2], in assay [3], in assay [4], in assay [5] and in assay [6] was greater than 100 µM throughout. In addition, the TGI in assay [7] and in assay [8] was greater than 100 µM throughout.
Regarding `CN1CCN(c2ccc(C(=O)Nc3cc(-c4cccc(NS(=O)(=O)c5ccccc5)c4)[nH]n3)cc2)CC1`, the GI50 was 3.33 µM in assay [1]; 6.26 µM in assay [2]; 11.6 µM in assay [3]; 10.2 µM in assay [4]; 8.52 µM in assay [5]; 3.29 µM in assay [6]. Moreover, the results for the GI50 in assay [7] and in assay [8] were 17.4 µM and 6.42 µM, respectively. For the same compound, the TGI came out at 14.5 µM in assay [1]; 27.8 µM in assay [2]; 35.2 µM in assay [3]; 33.2 µM in assay [4]; 21.2 µM in assay [5]; 13.2 µM in assay [6]. Further, the TGI amounted to 51.8 µM in assay [7] and 28.7 µM in assay [8].
With `CCNCCCn1c2c(c3ccc([N+](=O)[O-])cc3c1=O)C(=O)c1cc(OC)cnc1-2`, the GI50 in assay [1] is 0.0813 µM; in assay [2], 0.0327 µM; in assay [3] it was 0.0436 µM; in assay [4] it was 0.249 µM; in assay [5] it was 0.0558 µM; in assay [6], 0.0361 µM. Besides, the GI50 in assay [7] is 0.0406 µM; in assay [8] it was 0.176 µM. Besides, the TGI came out at 0.976 µM in assay [1]; 0.176 µM in assay [2]; 0.323 µM in assay [3]; 8.67 µM in assay [4]; 1.16 µM in assay [5]; 0.898 µM in assay [6]. The TGI in assay [7] was 2.3 µM; in assay [8], 1.49 µM.
For the compound `Cc1cc(N(CCCl)CCCl)ccc1/C=N/NC(=O)Cc1cc(=O)oc2cc(O)ccc12`, the TGI in assay [1] was 57.5 µM; in assay [2], 47.2 µM; in assay [3] it was 58.6 µM; in assay [4] it was 27.5 µM; in assay [5] it was greater than 100 µM; in assay [6], 31.5 µM. Also, the TGI was 26.3 µM in assay [7] and greater than 100 µM in assay [8].
As for `C=CC1=C(C)C2=NC1=CC1=NC(=CC3=C(C)C4=C(O)C(C(=O)OC)C(=C5NC(=C2)C(C)C5CCC(=O)OC)C4=N3)C(CC)=C1C` (stereo unspecified), the TGI in assay [1], in assay [2], in assay [3], in assay [4], in assay [5] and in assay [6] was greater than 100 µM each time. Moreover, the TGI in assay [7] and in assay [8] was greater than 100 µM in each case.
Consider `COc1ccc(N(/C=C/C(=O)C(F)(F)F)CC(=O)c2ccc(Cl)c(Cl)c2)cc1`, for which the GI50 in assay [1] is 5.56 µM; in assay [2] it was 24.1 µM; in assay [3], 17.5 µM; in assay [4] it was 8.33 µM; in assay [5], 11.3 µM; in assay [6] it was 19.4 µM. The GI50 in assay [7] is 15.6 µM; in assay [8], 32 µM. Moreover, the TGI in assay [1] is 56.6 µM; in assay [2], greater than 100 µM; in assay [3], 32.3 µM; in assay [4], 28.3 µM; in assay [5], 24.6 µM; in assay [6], 43.7 µM. Moreover, the results for the TGI in assay [7] and in assay [8] were 34.7 µM and greater than 100 µM, respectively.
As to `OCC(O)C(O)C(O)/C=N/Nc1nc2ccccc2nc1-c1ccccc1` (stereo unspecified), the GI50 in assay [1] is 85.3 µM; in assay [2], greater than 100 µM; in assay [3], greater than 100 µM; in assay [4], 82.4 µM; in assay [5] it was greater than 100 µM; in assay [6], 72.7 µM. The GI50 is 87.9 µM in assay [7] and 28.3 µM in assay [8]. Besides, the TGI in assay [1], in assay [2], in assay [3], in assay [4], in assay [5] and in assay [6] was greater than 100 µM throughout. The TGI in assay [7] is greater than 100 µM; in assay [8], 72.2 µM.
In the case of `N#Cc1c(N)nc(N2CCOCC2)c(C#N)c1-c1ccccc1Cl`, the GI50 is 21.5 µM in assay [1]; 14.5 µM in assay [2]; 37.7 µM in assay [3]; 22.6 µM in assay [4]; 93.4 µM in assay [5]; 0.0236 µM in assay [6]. The GI50 was 32.4 µM in assay [7] and 14.5 µM in assay [8]. For the same compound, the TGI in assay [1] is greater than 100 µM; in assay [2] it was 43.4 µM; in assay [3] it was greater than 100 µM; in assay [4], greater than 100 µM; in assay [5], greater than 100 µM; in assay [6], 2.81 µM. Also, the TGI was greater than 100 µM in assay [7] and 85.3 µM in assay [8].
